From patent US8338643B2, “Reagent for introduction of protein or gene” (Waseda University, priority 2006, dated 2012)

Legend:
[1] = tested on: COS-1 cells; experiment: Gene expression level by luciferase assay, lipid/pDNA complex; format: cell-based; conditions: for Gene expression level: COS-1, DOPE/cationic lipid liposome, 200 ng DNA, 24 hours
Protocol: (§1) Use of a cationic lipid as a reagent for gene introduction was studied. Cationic liposomes consisting of a mixed membrane constituted by DOPE as a membrane-fusogenic lipid and a cationic lipid were prepared. 15 mg of the mixed lipid (the introduction amount of cationic lipid membrane in mixed membrane was adjusted to 20, 30, 40 or 50 mol %) was dispersed in 1.5 mL of the HEPES buffer solution (pH 7.4), and a liposome having the particle size of about 100 nm was prepared using a probe-type ultrasonic apparatus. The particle size was measured by the dynamic light scattering method. In the table, A represents a cationic lipid 2 and a cationic lipid 6; B represents a cationic lipid 5; C represents a cationic lipid 7; and D represents a cationic lipid 8.
In order to evaluate the gene transfer ability of the prepared cationic liposomes, the gene expression level was calculated based on luciferase assay using an luciferase-encoding plasmid vector (phRL-TK) (n=3).
The experimental protocol was as follows. The amount of transfected DNA was set to 200 ng in all the cases. In 100 μL of medium, COS-1 cells (1×10^4 cells/well) were seeded on a 96-well plate, and cultured in a CO2 incubator for 12 hours. A complex of lipid and plasmid DNA (lipid/pDNA complex) was allowed to stand for minutes, and diluted with the medium to be added to the cells. After that, culture in the CO2 incubator was carried out for 24 hours. The medium was removed, and washing with PBS(−) was carried out twice. Then, a dissolution buffer diluted 5-fold with MilliQ water was added to the medium (25 μl/well), and the cells were solubilized. The obtained solution was mildly stirred and allowed to stand at room temperature for minutes. To 20 μL of the cell solution, 100 μL of the coelenterazine solution was added, and the luminescence intensity was measured using a luminometer.

[2] = ζ potential of liposomes; format: physicochemical; conditions: for ζ potential: DOPE mixed membrane, in mV
Protocol: As evaluation of physical properties, the quantification of lipid was carried out by means of quantification of choline-type phospholipid, and quantification of encapsulated protein was carried out by means of HPLC (220 nm). In addition, the particle size and ζ potential were measured by the dynamic light scattering method (BECKMAN COULTER, N4 PLUS). […]
(§2) The particle size and the ζ potential of the prepared cationic liposomes were measured. In the measurement of the particle size, the particle size in the case of the lipid concentration of 30 μM was measured by the dynamic light scattering method. In the measurement of the ζ potential, a liposome dispersion was diluted with a HEPES buffer solution (pH 7.4), and the ζ potential in the case of 30 μM was measured.
Next, the ζ potential of the prepared cationic liposomes was measured. A to D in the table was the same as Table 9.

[3] = Particle size of liposomes by dynamic light scattering; format: physicochemical; conditions: DOPE mixed membrane, in nm
Protocol: as §2, §1

| Molecule | ζ potential ([2]; cationic lipid 20 mol %) | ζ potential ([2]; cationic lipid 30 mol %) | ζ potential ([2]; cationic lipid 40 mol %) | ζ potential ([2]; cationic lipid 50 mol %) | Particle size ([3]; cationic lipid 20 mol %) | Particle size ([3]; cationic lipid 30 mol %) | Particle size ([3]; cationic lipid 40 mol %) | Particle size ([3]; cationic lipid 50 mol %) | ζ potential, comparison between lipids ([2]; DOPE mixed membrane liposomes) | Gene expression level [1] | Gene expression efficiency at best conditions ([1]; DOPE/lipid 6=6/4 (mol ratio), cationic liposome/plasmid DNA 10/1 (w/w)) |
| --- | --- | --- | --- | --- | --- | --- | --- | --- | --- | --- | --- |
| CCCCCCCCCCCCCCCCOC(=O)CCC(NC(=O)C(N)CCCCN)C(=O)OCCCCCCCCCCCCCCCC (stereo not drawn) [Compound 2, Lys-Glu2C16] | – | – | – | – | – | – | – | – | – | the gene expression level was low | – |
| Lys-(CH2)3-Glu2C16 [Compound 6] | – | – | – | – | – | – | – | – | – | a high expression efficiency was obtained | The highest expression efficiency was obtained |
| Lys-(CH2)7-Glu2C16 [Compound 7] | 34 ± 42 | 40 ± 3.3 | 49 ± 3.3 | 37 ± 3.1 | 88 ± 42 | 98 ± 37 | 86 ± 40 | 100 ± 48 | – | the gene expression level was low | – |

Now from value to molecule, other results behind:

| ζ potential ([2]; cationic lipid 20 mol %) | ζ potential ([2]; cationic lipid 30 mol %) | ζ potential ([2]; cationic lipid 40 mol %) | ζ potential ([2]; cationic lipid 50 mol %) | Particle size ([3]; cationic lipid 20 mol %) | Particle size ([3]; cationic lipid 30 mol %) | Particle size ([3]; cationic lipid 40 mol %) | Particle size ([3]; cationic lipid 50 mol %) | ζ potential, comparison between lipids ([2]; DOPE mixed membrane liposomes) | Molecule | Gene expression level [1] | Gene expression efficiency at best conditions ([1]; DOPE/lipid 6=6/4 (mol ratio), cationic liposome/plasmid DNA 10/1 (w/w)) |
| --- | --- | --- | --- | --- | --- | --- | --- | --- | --- | --- | --- |
| 28 ± 3.4 | 37 ± 0.2 | 42 ± 3.0 | 41 ± 1.3 | 99 ± 45 | 95 ± 46 | 91 ± 43 | 100 ± 47 | – | CCCCCCCCCCCCCCCCOC(=O)CCC(NC(=O)CCCCCNC(=O)C(N)CCCCN)C(=O)OCCCCCCCCCCCCCCCC (stereo not drawn) [Compound 5, Lys-(CH2)5-Glu2C16] | the expression level was lower than that of the spacer-contained lipid 6 | – |
| 30 ± 1.2 | 37 ± 0.8 | 37 ± 3.1 | 44 ± 1.6 | 95 ± 36 | 113 ± 50 | 80 ± 39 | 95 ± 36 | slightly lower than that of the lipid 7 | Lys-(CH2)11-Glu2C16 [Compound 8] | – | – |
